“Also recorded” adds a separate entry of the source.
What was measured:
delta opioid receptors = settings: 20 mg/kg s.c.; in words; cited from earlier work
mu opioid receptors [1] = settings: read-out: Ke, M (morphine); GPI, agonist morphine; antagonist 100 or 200 nM, 15 min; cited from earlier work
[2] = system: splenic mononuclear cells (MNC); assay: depressed AMLR of splenic MNC from rats infected with rat coronavirus; format: cell-based; settings: FIG. 2
Description: Rats were anesthetized with a mixture of 8 mg/ml keta/nine and 2 mg/ml acepromazine (dose=0.1 ml/100 g body weight) and the spleens were removed aseptically. The animals were exsanguinated while under anesthesia. Splenic MNC were released from the surrounding connective tissue by dispersing through a wire mesh. The red blood cells were removed by density gradient centrifugation on ficol-hypaque (Lymphocyte Separation Medium, LSM, Organon Tecknika, Durham, N.C.). The purified MNC were washed in Hanks Balanced Salt Solution containing 1% gelatin and 2 mM EDTA and resuspended in RPMI-1640 medium containing 5% Fetal Bovine Serum (FBS), 100 U/ml penicillin, 100 ug/ml streptomycin and 5×10^-5 M 2-mercaptoethanol. In some experiments, TCM™, a defined medium supplement (CELOX, Minneapolis, Minn.), was used instead of FBS.
Purified MNC were placed in 96-well round bottom plates at 2×10^5cells/well in a total volume of 0.2 ml and incubated for 5 days at 37° C. […] The cells were then harvested onto glass fiber filter paper and counted in a Beckman (Fullerton, Calif.) scintillation counter. The results are calculated as the mean counts per minute of triplicate wells, and are expressed as percent of control (cpm suppressed AMLR/cpm control AMLR). […]

[3] = system: allogeneic murine spleen cells; settings: cited from earlier work
[4] = system: splenic MNC (T and non-T cells); assay: depressed AMLR of splenic cells from mice infected with mCMV; format: cell-based; settings: for reversal of AMLR suppressed by CMV 10^-4: AMLR suppressed 42%; for reversal of AMLR suppressed by CMV 10^-2: AMLR suppressed 20%
Description: Mice were injected i.p. with serial 10-fold dilutions of a stock mCMV solution. Dilutions of stock virus ranged from 10^-2 to 10^-6. Mice were sacrificed after 10 days of infection. Control mice were injected with saline.
Splenic MNC from CMV-infected and uninfected mice were purified by density gradient centrifugation on LSM, as described above for the rat splenic MNC. T and non-T cell fractions were separated by nylon wool columns as disclosed by M. H. Julius et al., Eur. J. Immunol., 3, 645 (1973). The T-enriched cells were used as responder cells. The non-T cells were treated with mitomycin-C to stop their proliferation, as described by K. M. Linner et al., Endocrinol., 128, 717 (1991) and used as stimulator cells. Autologous cell cultures were then set up, with equal numbers (2×10^5) of responder T and stimulator non-T cells being cultured in the 96-well microtiter plates. Cells were cultured for 5 days. To some wells, NTI at 10^-10, 10^-12 or 10^-14 M, concentrations determined to be optimal from the rat AMLR studies, was added for the duration of the culture period. ^3 H-thymidine was added to each well for the last 18 hr of incubation, and the cultures were harvested and counted as described above.

immune function = settings: both in vivo and in vitro; cited from earlier work
μ opioid receptor [5] = target: μ opioid receptor (Cavia porcellus, UniProt A0ACM8Q262); assay: antagonism of morphine in the GPI (Example 7); format: cell-based, guinea pig; settings: morphine as agonist, read-out: Ke, μ (Table VII)
Chain of μ opioid receptor (Cavia porcellus, UniProt A0ACM8Q262) (A0ACM8Q262 1-400): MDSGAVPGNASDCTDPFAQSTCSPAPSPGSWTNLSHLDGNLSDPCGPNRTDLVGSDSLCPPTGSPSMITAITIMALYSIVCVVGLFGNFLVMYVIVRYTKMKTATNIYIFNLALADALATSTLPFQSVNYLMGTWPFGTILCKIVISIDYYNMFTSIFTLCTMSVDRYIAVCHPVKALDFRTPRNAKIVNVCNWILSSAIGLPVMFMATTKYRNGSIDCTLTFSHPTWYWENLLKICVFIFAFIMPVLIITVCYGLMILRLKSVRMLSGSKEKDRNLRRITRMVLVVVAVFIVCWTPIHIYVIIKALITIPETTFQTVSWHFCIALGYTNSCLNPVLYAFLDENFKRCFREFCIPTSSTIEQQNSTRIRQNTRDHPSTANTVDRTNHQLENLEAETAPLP
Description: (§1) 1. Guinea Pig Ileal Longitudinal Muscle (GPI). Ilea from guinea pigs were taken approximately 10 cm from the ileocaecal junction, and a strip of longitudinal muscle with the myenteric plexus attached was prepared by method of Rang et al., Brit. J. Pharmacol., 22, 356 (1964), the disclosure of which is incorporated by reference herein. A 1 cm portion of this strip was then mounted between two platinum electrodes placed in a 10 ml organ bath and connected to an isometric transducer. Contractions were recorded on a polygraph. […] The organ bath was maintained at 36°-37° C. The longitudinal muscle strip was allowed to equilibrate with continuous stimulation for a minimum of 90 min.

kappa opioid receptors = settings: 20 mg/kg s.c.; in words; cited from earlier work
[6] = both in vivo and in vitro; cited from earlier work
[7] = system: mixed lymphocyte responses; settings: cited from earlier work
mu opioid receptors [8] = settings: 20 mg/kg s.c.; in words; cited from earlier work
renal allograft = settings: in words; cited from earlier work
μ opioid receptor [9] = target: T1, μ opioid receptor (Mus musculus, UniProt P42866); assay: tail flick assay, antagonism of antinociception by μ agonist; format: in vivo, mice; settings: BNTX 6.25 pmol/i.c.v./mouse
T1 construct: evaluated in mice using the tail flick assay; from tissue; host or cells: living mice (i.c.v. injection)
T1 sequence (P42866 whole entry): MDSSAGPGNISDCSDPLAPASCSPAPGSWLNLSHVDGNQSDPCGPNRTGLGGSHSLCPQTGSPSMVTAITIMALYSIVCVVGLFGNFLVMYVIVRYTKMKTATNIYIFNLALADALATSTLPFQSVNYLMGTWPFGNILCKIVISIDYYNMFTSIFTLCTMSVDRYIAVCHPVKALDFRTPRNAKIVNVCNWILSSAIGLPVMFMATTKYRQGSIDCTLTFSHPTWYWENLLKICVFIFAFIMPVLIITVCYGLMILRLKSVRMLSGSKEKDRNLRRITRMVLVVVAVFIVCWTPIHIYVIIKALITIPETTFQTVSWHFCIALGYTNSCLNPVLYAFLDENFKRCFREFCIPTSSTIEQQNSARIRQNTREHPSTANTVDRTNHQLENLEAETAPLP
Description: (§2) The antagonist effect of BNTX on antinociceptin was evaluated in mice using the tail flick assay, in accord with the procedure of F. C. Tulunay et al., J. Pharmacol. Exp. Ther., 243, 91 (1987). At least three groups of ten mice were used to generate dose-response curves. A mouse was regarded as positive for antinociception if the latency to flick its tail was more than the control latency plus 3 S.D. of the mean reaction time of the group. The reaction times were determined at the peak time for antinociception after administration of various agonists. Intracerebroventricular (i.c.v.) injections were made in a volume of 5 μl by the method of T. J. Haley et al., Br. J. Pharmacol., 12, 12 (1957).
(§3) On Table VIII, the potencies are expressed as ED50 ratios, which represent the ED50 of the standard agonist administered subcutaneously in the presence of BNTX (6.25 pmol/i.c.v./mouse), divided by the ED50 of the standard agonist.

δ1 opioid receptor = target: T2, δ1 opioid receptor (Mus musculus, UniProt P32300); assay: antagonism of DPDPE in smooth muscle; format: cell-based; settings: Table VIII, read-out: Smooth Muscle Ke, DPDPE (δ1)
T2 construct: Both vasa deferentia were dissected out of mice; from tissue; host or cells: smooth muscle preparation, inferred mouse vas deferens
T2 sequence (P32300 whole entry): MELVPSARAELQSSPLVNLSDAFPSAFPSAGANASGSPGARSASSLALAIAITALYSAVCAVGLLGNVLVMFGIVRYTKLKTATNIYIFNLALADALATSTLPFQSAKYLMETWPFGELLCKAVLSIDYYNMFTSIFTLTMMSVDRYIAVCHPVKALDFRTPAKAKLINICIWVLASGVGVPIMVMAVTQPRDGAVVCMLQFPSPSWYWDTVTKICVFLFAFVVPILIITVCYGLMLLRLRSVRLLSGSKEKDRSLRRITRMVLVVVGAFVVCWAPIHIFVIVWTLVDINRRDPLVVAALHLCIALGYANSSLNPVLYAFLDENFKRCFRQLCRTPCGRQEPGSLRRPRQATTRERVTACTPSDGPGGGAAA
From the text: (§4) Concentration-response curves were obtained in the absence (control) and the presence of the antagonist are expressed as IC50 values. […] Therefore, a high IC50 ratio represents a correspondingly high degree of antagonism at a particular receptor. […] Therefore, a low Ke represents a correspondingly high degree of binding at a particular receptor.

μ receptors = μ receptors (Cavia porcellus, UniProt A0ACM8Q262); assay: binding to guinea pig brain membranes, [3H]DAMGO
Chain of μ receptors (A0ACM8Q262 1-400): as the sequence (A0ACM8Q262 1-400) above

δ2 receptors = target: T3, δ2 receptors (Cavia porcellus, UniProt A0A286XTF2); assay: binding to guinea pig brain membranes, [3H]DSLET
T3 construct: guinea pig brain membranes; from tissue; host or cells: guinea pig brain membranes
T3 sequence (A0A286XTF2 1-366): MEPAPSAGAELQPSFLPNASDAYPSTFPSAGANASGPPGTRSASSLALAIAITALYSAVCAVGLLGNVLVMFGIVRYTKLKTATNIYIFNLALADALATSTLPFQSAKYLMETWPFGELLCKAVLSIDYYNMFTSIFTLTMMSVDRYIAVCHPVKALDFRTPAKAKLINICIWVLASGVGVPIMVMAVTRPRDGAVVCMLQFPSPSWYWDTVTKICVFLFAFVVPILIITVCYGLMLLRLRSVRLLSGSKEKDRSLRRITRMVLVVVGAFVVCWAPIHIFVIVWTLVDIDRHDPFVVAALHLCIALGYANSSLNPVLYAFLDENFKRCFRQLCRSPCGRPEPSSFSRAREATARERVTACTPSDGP
Description: (§5) Therefore, a better assessment of the δ subtype selectivity can be obtained from binding of brain membranes and from antagonism studies in mice. The binding of BNTX to guinea pig brain membranes was determined using the general method of L. L. Werling et al., J. Pharmacol. Exp. Ther., 233, 722 (1985), as modified by A. E. Takemori et al., J. Pharmacol. Exp. Ther., 246, 255 (1988). The radio-ligands employed were [^3 H]DPDPE ([D-Pen^2, D-Pen^5 ] enkephalin) for δ1receptors, [^3 H]DSLET([D-Ser^2 -Leus]enkephalin-Thr^6) for δ^2 receptors, [3H]DAMGO for μ receptors and U69593(trans-(±)-3,4-dichloro-N-methyl-N-[2-(lpyrididinyl)cyclohexyl]benzeneacetamide) for κ receptors.

δ2 opioid receptor [10] = target: T4, δ2 opioid receptor (Mus musculus, UniProt P32300); assay: antagonism of DSLET in smooth muscle; format: cell-based; set-up: Both vasa deferentia were dissected out of mice; from tissue; host or cells: smooth muscle preparation, inferred mouse vas deferens; settings: Table VIII, read-out: Smooth Muscle Ke, DSLET (δ2)
T4 sequence (P32300 whole entry): as the sequence (P32300 whole entry) above
From the text: as §4

κ opioid receptor [11] = target: T5, κ opioid receptor (Mus musculus, UniProt P33534); assay: tail flick assay, antagonism of antinociception by U50488H; format: in vivo, mice; settings: BNTX 6.25 pmol/i.c.v./mouse
T5 construct: evaluated in mice using the tail flick assay; from tissue; host or cells: living mice (i.c.v. injection)
T5 sequence (P33534 whole entry): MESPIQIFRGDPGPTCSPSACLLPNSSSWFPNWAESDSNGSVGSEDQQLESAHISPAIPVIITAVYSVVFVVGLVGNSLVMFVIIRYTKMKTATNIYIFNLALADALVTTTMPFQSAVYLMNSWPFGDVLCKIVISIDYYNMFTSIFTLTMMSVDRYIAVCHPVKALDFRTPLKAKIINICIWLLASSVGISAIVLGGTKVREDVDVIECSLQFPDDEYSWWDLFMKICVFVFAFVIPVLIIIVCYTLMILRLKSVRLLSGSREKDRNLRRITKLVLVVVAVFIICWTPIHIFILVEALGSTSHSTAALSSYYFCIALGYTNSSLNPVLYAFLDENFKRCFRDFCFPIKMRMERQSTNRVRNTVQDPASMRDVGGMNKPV
Description: as §2, §3

δ2 opioid receptor [12] = target: T4, δ2 opioid receptor; assay: tail flick assay, antagonism of antinociception by DSLET; format: in vivo, mice; set-up: evaluated in mice using the tail flick assay; from tissue; host or cells: living mice (i.c.v. injection); settings: BNTX 6.25 pmol/i.c.v./mouse
Description: as §2, §3

κ opioid receptor [13] = target: T6, κ opioid receptor (Cavia porcellus, UniProt P41144); assay: antagonism of ethylketazocine in the GPI (Example 7); format: cell-based, guinea pig; settings: ethylketazocine as agonist, read-out: Ke, κ (Table VII)
T6 construct: a strip of longitudinal muscle with the myenteric plexus attached was prepared; from tissue; host or cells: guinea pig ileum longitudinal muscle with myenteric plexus
T6 sequence (P41144 whole entry): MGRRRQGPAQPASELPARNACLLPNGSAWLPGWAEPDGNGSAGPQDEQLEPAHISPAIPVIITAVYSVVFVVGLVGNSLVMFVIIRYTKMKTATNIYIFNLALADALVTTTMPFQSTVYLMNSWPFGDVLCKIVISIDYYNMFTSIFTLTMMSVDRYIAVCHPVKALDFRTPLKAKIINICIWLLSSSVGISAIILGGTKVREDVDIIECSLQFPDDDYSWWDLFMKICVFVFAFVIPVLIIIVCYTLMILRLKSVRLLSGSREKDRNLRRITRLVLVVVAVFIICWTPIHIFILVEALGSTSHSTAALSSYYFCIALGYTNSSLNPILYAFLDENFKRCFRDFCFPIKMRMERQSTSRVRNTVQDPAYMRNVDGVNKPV
Description: as §1

δ1 receptors = target: T7, δ1 receptors (Cavia porcellus, UniProt A0A286XTF2); assay: binding to guinea pig brain membranes, [3H]DPDPE
T7 construct: guinea pig brain membranes; from tissue; host or cells: guinea pig brain membranes
T7 sequence (A0A286XTF2 1-366): as the sequence (A0A286XTF2 1-366) above
Description: as §5

δ opioid receptor = target: T8, δ opioid receptor (Mus musculus, UniProt P32300); assay: antagonism of DADLE on MVD preparations (Example 7); format: cell-based
T8 construct: Both vasa deferentia were dissected out of mice; from tissue; host or cells: mouse vas deferens (isolated, electrically stimulated)
T8 sequence (P32300 whole entry): as the sequence (P32300 whole entry) above
Description: 2. Mouse Vas Deferens (MVD). […] The organ bath was maintained at 37° C.
as §4

[14] = system: enkephalin-binding receptor on cells of the immune system; settings: in words; cited from earlier work

Oc1ccc2c3c1O[C@H]1c4[nH]c5ccccc5c4C[C@@]4(O)[C@@H](C2)N(CC2CC2)CC[C@]314 [Compound 1, 17-(cyclopropylmethyl)-6,7-dehydro-3,14β-dihydroxy-4,5α-epoxy-6,7-2',3'-indolmorphinan]
block of writhing inhibition due to DSLET (delta opioid receptors): effectively blocked | Kb (mu opioid receptors [1]): 29.4 nM | reversal of depressed AMLR [2]: reversed | MLR suppression [3]: strongly suppresses the MLR | reversal of the suppressed AMLR caused by CMV infection ([4]; FIGS. 4A and 4B): can reverse the suppressed AMLR | reversal of AMLR suppressed by CMV 10^-4 ([4]; NTI 10^-10 M): partially | reversal of AMLR suppressed by CMV 10^-2 ([4]; NTI 10^-12 and 10^-10 M): completely reversed | reversal of AMLR suppressed by CMV 10^-4 ([4]; NTI 10^-14 M-10^-12 M): reversed completely | reversal of AMLR suppressed by CMV 10^-2 ([4]; NTI 10^-14 M): not by NTI at 10^-14 M | immunosuppression (immune function): immunosuppressive | Kb (μ opioid receptor [5]): […] | antagonism of the effect of U50488H (kappa opioid receptors): without significantly antagonizing | toxicity [6]: non-toxic | effectiveness compared with cyclosporine A (CsA) ([7]; in both in vitro responses): less effective than cyclosporine A (CsA) | allogeneic and xenogeneic mixed lymphocyte responses ([7]; in vitro, in words): suppress in vitro allogeneic and xenogeneic mixed lymphocyte responses | antagonism of the effect of morphine (mu opioid receptors [8]): without significantly antagonizing | allograft survival (renal allograft): prolong allograft survival

O=C1C(=Cc2ccccc2)C[C@@]2(O)[C@H]3Cc4ccc(O)c5c4[C@@]2(CCN3CC2CC2)[C@H]1O5 [BNTX, 7-Benzylidene-7-dehydronaltrexone]
ED50 Ratio ("Potency Ratio"), DAMGO row (μ opioid receptor [9]): 0.88 | shift of the morphine dose-response curve (μ opioid receptor [9]; in words): not shifted significantly | Kb (δ1 opioid receptor): 5.2 nM | Ki (μ receptors): 13.3 nM | Ki (δ2 receptors): 10.8 nM | Kb (δ2 opioid receptor [10]): 2.1 nM | Kb (μ opioid receptor [5]): 8.3 nM | ED50 Ratio ("Potency Ratio"), U50488H (κ opioid receptor [11]): 1.2 | shift of the U50488H dose-response curve (κ opioid receptor [11]; in words): not shifted significantly | ED50 Ratio ("Potency Ratio"), DSLET (δ2 opioid receptor [12]): 0.91 | shift of the DSLET dose-response curve (δ2 opioid receptor [12]; in words): not shifted significantly | Kb (κ opioid receptor [13]): 100 nM | δ1 selectivity in words (δ1 receptors; binding): highly selective for δ1 receptor sites; also recorded: first δ1 opioid receptor subset-selective antagonist | Ki (δ1 receptors; guinea pig brain membranes): 0.1 nM | binding ratio, Ki(δ2)/Ki(δ1) (δ1 receptors; guinea pig brain membranes): about 100 | Kb (δ opioid receptor): 2.9 nM | Ke Ratio κ/δ (δ opioid receptor; GPI ethylketazocine / MVD DADLE): 35 | Ke Ratio μ/δ (δ opioid receptor; GPI morphine / MVD DADLE): 2.9 | Ke ratios compared with NTI and naltrexone, in words (δ opioid receptor; Table VII data): less than those of the standard δ agonist NTI, but greater than those of naltrexone | receptor selectivity in words (δ opioid receptor; Table VII data): δ-selective antagonist

C=CCN1CC[C@]23c4c5ccc(O)c4O[C@H]2C(=O)CC[C@@]3(O)[C@H]1C5 [naloxone]
block of many of the effects of enkephalins on immune function [14]: blocked

Source: US5631263A, “Use of delta opioid receptor antagonists to treat immunoregulatory disorders” (Minneapolis Medical Research Foundation, priority 1995, dated 1997)
